The text below walks through data of PMC6437461, “Histone deacetylase inhibitory and cytotoxic activities of the constituents from the roots of three species of Ferula” (Iranian Journal of Basic Medical Sciences, 2019).

Read-outs that look alike come from different tables or passages of the source. Where only a bound is given, the exact number is not on record here.

In data set [1] the test system is pan-HDAC. The data set can be described thus: Whole-cell HDAC inhibition assay in HCT116 cells. The settings on record: read-out: HDAC inhibition IC50 HCT116, HCT116, 18 hr incubation, Boc-Lys(ε-Ac)-AMC substrate.
Method: (§3) Three wells defined as 100% initial activity and three wells defined as background and three wells for each concentration were seeded. […] The test compounds, were dissolved in dimethyl sulfoxide (final concentrations of DMSO per well was 0.1% V/V) and their concentrations adjusted to 70, 40, 20, 5, 1 μM through dilution with the growth medium. The first step of reaction was started by adding 10 µl of 3 mM Boc-Lys (ε-Ac)-AMC (Bachem, Switzerland) to each well to reach a final concentration of 0.3 mM. Then, cells were incubated with the Boc-Lys (ε-Ac)-AMC for 3 hr under cell culture conditions. […] The final volume of the solution (210 µl per well) were transferred to the black 96-well microplate with flat clear bottom. We calculated fluorescence intensity at an excitation of 360 nm and emission of 470 nm in a NOVO star microplate reader (BMGLabTech, Germany).
Another data set concerns HCT116 cells. The data set is described as follows: AlamarBlue cytotoxicity assay, HCT116. It is filed as cell-based. The note with it: Homo sapiens, HCT-116, 48 hr treatment. Here is the method: (§1) Cervical (HeLa), ovarian (A2780), and lung (A549) cancer cells, obtained from Biotechnology Laboratory stocks, Biotechnology Research Center (Mashhad, Iran) and colon (HCT116) obtained from National Cell Bank of Iran (NCBI), Pasteur Institute of Iran, Tehran (Iran).
(§2) In vitro cytotoxicity tests were performed using a nonfluorescent substrate, AlamarBlue® (Paisely, UK) cell viability assay as described with some modifications (16). […] After counting, the cells were seeded in 96-well microplates (1 × 10^4 cells/100 µl in each well) and cultivated for 24 hr before addition of test compounds. Triplicate plates for three wells of each concentration were seeded. […] Thereafter, 10 μl of AlamarBlue® reagent was added and incubated for another 4 hr. Then, absorbance was measured at 600 nm using an ELISA microplate reader (Epoch; USA). IC50 values were calculated by nonlinear regression analysis using GraphPad prism (Version 6.0) software.
(Alamar Blue is a resazurin reagent that responds to reducing activity.)

For a further data set, the system named is A2780 cells. The data set can be described thus: AlamarBlue cytotoxicity assay, A2780. It is filed as cell-based. The note with it: Homo sapiens, 48 hr treatment. Here is the method:
as §1, §2

The test system of data set [2] is pan-HDAC. The data set can be described thus: Whole-cell HDAC inhibition assay in HeLa cells. The note with it: read-out: HDAC inhibition IC50 HeLa, 18 hr incubation, Boc-Lys(ε-Ac)-AMC substrate.
Method: as §3
Another data set concerns A549 cells. The data set is described as follows: AlamarBlue cytotoxicity assay, A549. Format: cell-based. The settings on record: Homo sapiens, 48 hr treatment. Here is the method:
as §1, §2

In the next data set the test system is HeLa cells. The data set is described as follows: AlamarBlue cytotoxicity assay, HeLa. The settings on record: Homo sapiens, 48 hr treatment. Format: cell-based. As to the method: as §1, §2
The test system of data set [3] is human cancer cell lines (HeLa, HCT116, A2780 and A549). The data set is described as follows: AlamarBlue cytotoxicity, summary over the four cancer cell lines. Format: cell-based. The note with it: collective range, read-out: Cytotoxic activity IC50 against cancer cells (range over cell lines and compounds). As to the method: as §1, §2
Data set [4] relates to pan-HDAC. The data set is described as follows: Whole-cell pan-HDAC inhibition, summary over HeLa and HCT116. The settings on record: read-out: pan-HDAC inhibitory activity IC50 (range over HeLa and HCT116), collective range.
Method: as §3

Take `CCC(C)SS/C=C\COC(=O)/C=C/c1ccc(O)c(OC)c1` (centres unmarked) [Latisulfide E (17), Latisulfide E]: the IC50 (commonly the concentration at which inhibition is half-maximal) amounted to 19.9 ± 0.69 µM in the data set on pan-HDAC [1]; 57.1 ± 5.21 µM in the data set with HCT116 cells; 71.3 ± 6.52 µM in the data set on A2780 cells; 5.02 ± 0.29 µM in the data set with pan-HDAC [2]; 69.7 ± 7.71 µM with A549 cells; 30.6 ± 14.9 µM with HeLa cells.
For the compound `CC(C)=CCC/C(C)=C/CC/C(C)=C/COc1ccc2ccc(=O)oc2c1` [Umbelliprenin (4), Umbelliprenin], the IC50 is over 70 µM in the data set on pan-HDAC [1]; over 100 µM in the data set with HCT116 cells; over 100 µM with A2780 cells; over 70 µM in the data set with pan-HDAC [2]; over 100 µM with A549 cells; over 100 µM in the data set with HeLa cells.
In the case of `CC1=CC(OC2OC(CO)C(O)C(O)C2O)C2C(C)(C)C(=O)CC[C@@]2(C)[C@@H]1COc1ccc2ccc(=O)oc2c1` (some centres unmarked) [Conferoside (10), Conferoside], the IC50 in the data set on pan-HDAC [1] was 9.94 ± 1.89 µM; in the data set on HCT116 cells, 35.3 ± 6.98 µM; in the data set on A2780 cells it was 36.4 ± 12.3 µM; with pan-HDAC [2], 35.27 ± 0.16 µM; in the data set with A549 cells it was 45.8 ± 6.39 µM; in data set [3] (Homo sapiens), 11.6 to 49.4 µM. The compound further showed an IC50 in the data set with HeLa cells of 40 ± 7.99 µM.
As for `CC1=CCC2C(C)(C)C(=O)CC[C@@]2(C)[C@@H]1COc1ccc2ccc(=O)oc2c1` (some centres unmarked) [Conferone (6), Conferone], the concentration for half-maximal inhibition (IC50) is 1.06 ± 0.15 µM in the data set with pan-HDAC [1]; 31.8 ± 8.33 µM in the data set on HCT116 cells; 32.4 ± 9.83 µM in the data set on A2780 cells; 1.17 ± 0.06 µM with pan-HDAC [2]; 39.2 ± 5.23 µM in the data set with A549 cells; 1.06 to 1.17 µM in the data set with pan-HDAC [4]. Besides, the figures for the IC50 (in data set [3]; with HeLa cells) were under 50 µM and 38.2 ± 7.8 µM, respectively.
With `CCC(C)SS/C=C/COC(=O)CC(C)(C)OC(C)=O` (centres unmarked) [Persicasulfide A (2), Persicasulfide A], the IC50 in the data set on pan-HDAC [1] was 4.41 ± 0.24 µM; in the data set on HCT116 cells, 11.6 ± 10.5 µM; in the data set on A2780 cells, 19.4 ± 7.29 µM; in the data set on pan-HDAC [2], 5.47 ± 0.89 µM; in the data set with A549 cells, 15.3 ± 6.77 µM; in data set [3] (Homo sapiens), 11.6 to 49.4 µM. In the data set on HeLa cells, this compound came in with a half-maximal inhibitory concentration (IC50) of 11.8 ± 11.6 µM.
For the compound `COc1cc(C(=O)OC2C3(C)CCC(C3)C2(C)C)ccc1O` (centres unmarked) [Stylosin (19), Stylosin], the IC50 was 14.93 ± 0.08 µM in the data set with pan-HDAC [1]; 42.1 ± 6.1 µM with HCT116 cells; 25.5 ± 5.96 µM in the data set on A2780 cells; over 70 µM with pan-HDAC [2]; 54.8 ± 7.53 µM in the data set on HeLa cells.
Turning to `CC1=CC(=O)[C@@H]2C(C)(C)[C@H](O)CC[C@@]2(C)[C@@H]1COc1ccc2ccc(=O)oc2c1` [Ligupersin A (8), Ligupersin A], the IC50 with pan-HDAC [1] was found to be 26.44 ± 0.03 µM; in the data set on HCT116 cells, 68.5 ± 7.41 µM; in the data set on A2780 cells it was 39.5 ± 10.8 µM; in the data set on pan-HDAC [2], 2.86 ± 1.4 µM; in the data set with A549 cells, 33.5 ± 9.58 µM; in the data set with HeLa cells it was 22.9 ± 6.82 µM.
As for `C/C=C(/C)C(=O)OC/C=C\SSC(C)CC` (centres unmarked) [Latisulfide C (15), Latisulfide C], the IC50 with pan-HDAC [1] is 25.91 ± 0.14 µM; in the data set with HCT116 cells, 47.2 ± 8.18 µM; with A2780 cells, 49.4 ± 6.2 µM; with pan-HDAC [2] it was 10.6 ± 0.77 µM; in the data set with A549 cells it was 47.9 ± 4.73 µM; in data set [3] (Homo sapiens), 11.6 to 49.4 µM. Further, in the data set with HeLa cells, the IC50 came out at 18.7 ± 8.5 µM.
Regarding `C=C1CCC(=O)C(C)(C)[C@H]1CC/C(C)=C/COc1ccc2ccc(=O)oc2c1` [Farnesiferone B (5), Farnesiferone B], the IC50 with pan-HDAC [1] is 40.4 ± 1.09 µM; in the data set on HCT116 cells it was 50.1 ± 6.29 µM; in the data set with A2780 cells, 78.9 ± 6.74 µM; with pan-HDAC [2], over 70 µM; in the data set with A549 cells, 72.5 ± 4.83 µM; in the data set on HeLa cells, 71.6 ± 6.4 µM.
As to `CC1=CC[C@@H]2C(C)(C)[C@H](O)CC[C@@]2(C)[C@@H]1COc1ccc2ccc(=O)oc2c1` [Feselol (7), Feselol], the half-maximal inhibitory concentration (IC50) in the data set on pan-HDAC [1] was 5.29 ± 0.22 µM; in the data set on HCT116 cells, 28.4 ± 8.1 µM; in the data set with A2780 cells it was 20.2 ± 9.68 µM; with pan-HDAC [2], 10.7 ± 1.31 µM; in the data set on A549 cells, 25.5 ± 5.86 µM; in data set [3] (Homo sapiens) it was 11.6 to 49.4 µM. This compound yielded an IC50 in the data set with HeLa cells of 34.8 ± 7.94 µM.
Regarding `CCC(C)SS/C=C/COC(=O)CC(C)(C)O` (centres unmarked) [Persicasulfide C (3), Persicasulfide C], the IC50 with pan-HDAC [1] was over 70 µM; with HCT116 cells it was over 100 µM; in the data set on A2780 cells, over 100 µM; in the data set with pan-HDAC [2], over 70 µM; with A549 cells it was over 100 µM; in the data set on HeLa cells, 64.8 ± 1.01 µM.
For `CC1=CC(=O)C2C(C)(C)C(=O)CC[C@@]2(C)[C@@H]1COc1ccc2ccc(=O)oc2c1` (some centres unmarked) [Conferdione (9), Conferdione], the IC50 was over 70 µM with pan-HDAC [1]; 50.9 ± 5.19 µM with HCT116 cells; 38.8 ± 9.88 µM with A2780 cells; 17.4 ± 0.5 µM with pan-HDAC [2]; 32.7 ± 7.96 µM in the data set on A549 cells; 41.7 ± 11.1 µM in the data set with HeLa cells.
In the case of `CCC(C)SS/C=C\COC(C)=O` (centres unmarked) [Latisulfide A (13), Latisulfide A], the IC50 in the data set on pan-HDAC [1] was over 70 µM; with HCT116 cells, over 100 µM; with A2780 cells it was over 100 µM; in the data set with pan-HDAC [2] it was over 70 µM; in the data set on A549 cells, over 100 µM; in the data set on HeLa cells it was 77.6 ± 3.43 µM.
With `CCC(C)SS/C=C\CO` (centres unmarked) [Latisulfide D (16), Latisulfide D], the IC50 in the data set on pan-HDAC [1] is over 70 µM; in the data set with HCT116 cells, over 100 µM; with A2780 cells, over 100 µM; in the data set on pan-HDAC [2], over 70 µM; with A549 cells it was over 100 µM; with HeLa cells, over 100 µM.
As to `C=C(C)C(=O)OC/C=C\SSC(C)CC` (centres unmarked) [Latisulfide B (14), Latisulfide B], the IC50 is over 70 µM with pan-HDAC [1]; over 100 µM with HCT116 cells; over 100 µM in the data set on A2780 cells; over 70 µM with pan-HDAC [2]; over 100 µM in the data set on A549 cells; over 100 µM in the data set with HeLa cells.
